# Reference: ChEMBL document CHEMBL4476878, “Galactokinase inhibitors” (2013)
# The source made the active and inactive calls. The rule behind the calls is not given here.
# Molecular target: T1, 4-diphosphocytidyl-2-C-methyl-D-erythritol kinase (Escherichia coli (strain K12)) (UniProt P62615)
# T1 sequence (whole entry): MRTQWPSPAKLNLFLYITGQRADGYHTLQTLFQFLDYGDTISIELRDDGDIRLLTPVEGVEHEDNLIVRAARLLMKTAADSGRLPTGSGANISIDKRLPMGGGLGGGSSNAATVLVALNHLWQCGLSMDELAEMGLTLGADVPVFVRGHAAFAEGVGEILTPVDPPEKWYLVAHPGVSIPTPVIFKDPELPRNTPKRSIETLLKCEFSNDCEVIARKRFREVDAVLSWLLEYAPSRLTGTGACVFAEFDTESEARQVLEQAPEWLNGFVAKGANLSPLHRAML
# Experiment: Inhibition of purified Escherichia coli CDP-ME kinase IspE expressed in Escherichia coli HMS174 at 10 to 50 uM by luciferase-luciferin based luminescence-based assay
row,SMILES,inhibition
1,Cc1cc2c(C(C)C)c(O)c(O)c(C=O)c2c(O)c1-c1c(C)cc2c(C(C)C)c(O)c(O)c(C=O)c2c1O,Active

# Molecular target: Galactokinase (Homo sapiens) (UniProt P51570)
# Experiment: Inhibition of His6-tagged recombinant human GALK expressed in Escherichia coli HMS174 (DE3) incubated for 60 mins using galactose and ATP by Kinase-Glo reagent based assay
# Galactokinase (Homo sapiens), sequence (P51570 whole entry): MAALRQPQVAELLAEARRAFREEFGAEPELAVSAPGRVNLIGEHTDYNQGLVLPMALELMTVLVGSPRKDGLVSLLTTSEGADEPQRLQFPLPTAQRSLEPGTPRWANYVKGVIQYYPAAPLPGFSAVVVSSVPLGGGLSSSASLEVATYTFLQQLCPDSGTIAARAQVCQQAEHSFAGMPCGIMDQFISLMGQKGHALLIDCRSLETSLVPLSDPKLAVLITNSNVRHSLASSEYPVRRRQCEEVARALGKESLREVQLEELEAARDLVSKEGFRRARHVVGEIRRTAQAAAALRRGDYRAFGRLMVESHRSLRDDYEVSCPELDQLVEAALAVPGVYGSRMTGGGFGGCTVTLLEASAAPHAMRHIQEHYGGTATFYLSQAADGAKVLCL
row,SMILES,inhibition
1,O=C(NC1(O)C(=O)c2ccccc2C1=O)c1cnn(-c2ccccc2)c1C(F)(F)F,Active
2,CC(C)OC1(O)C(=O)c2ccccc2C(=O)C1(O)OC(C)C (stereo not drawn),Active
3,CC1=NOC(=O)/C1=C\c1ccc(-c2ccccc2)o1,Active
4,O=C1OC(c2ccccc2)OC(=O)C1=C/C=C/c1ccccc1 (stereo not drawn),Active
5,CCSC1=C(C#N)C(=O)NC(/C=C/c2ccccc2)S1 (stereo not drawn),Active
6,Cn1c(=S)[nH]c2sc3c(c2c1=O)CCC(C(C)(C)C)C3 (stereo not drawn),Active
7,O=C1NC(=S)N(c2cccc3ccccc23)C(=O)/C1=C/c1c[nH]c2ccccc12,Active
8,O=C1NC(=O)N(c2ccccc2)C(=O)/C1=C/c1c2ccccc2cc2ccccc12,Active
9,O=C1O[C@H](c2ccccc2)[C@H](c2ccccc2)N2[C@H]1[C@@H](C(=O)O)[C@]1(C(=O)Nc3ccc(C#CC4(O)CCCCCC4)cc31)[C@H]2c1ccc(OCCO)cc1,Active
10,O=C1C=C2N(c3ccccc3)CCOC2(O)c2ccccc21 (stereo not drawn),Active
11,CC1(C)CCC2=C(O1)c1ccccc1C(=O)C2=O,Active
12,N#CC1=C(SCc2ccccc2)SC(c2ccccc2O)NC1=O (stereo not drawn),Active
13,CC(C)(C)c1cc(/C=C2/SC(=S)NC2=O)cc(C(C)(C)C)c1O,Active
14,CC(C)(C)C(=O)Nc1ccc2c(c1)C(=O)C(=O)c1ccccc1-2,Active
15,CC1(c2ccccc2)CC(C)(C)N2C(=O)/C(=C3/SC(=O)NC3=O)c3cccc1c32 (stereo not drawn),Active
16,N#CC1=C(SCc2ccccc2)SC(c2ccc(C(=O)O)cc2)NC1=O (stereo not drawn),Active
17,Cc1c(O)c(C(=O)CC(C)C)c2oc3c(C(=O)CC(C)C)c(O)c(C)c(O)c3c2c1O,Active

row,SMILES,inhibition
1,COC1=C(N)C(=O)c2nc(-c3nc(C(=O)O)c(C)c(-c4ccc(OC)c(OC)c4O)c3N)ccc2C1=O,Active
2,O=C1OC2(c3ccccc31)c1cc(I)c(O)c(I)c1Oc1c2cc(I)c(O)c1I,Active
3,O=C1OC2(CCCC2)OC(=O)C1=Cc1ccc(OCc2ccccc2)cc1,Active
4,Cc1ccc(CSc2nc(C(=O)O)ccc2C#N)cc1,Active
5,Oc1c(Cl)cc(Cl)c(Cl)c1Cc1c(O)c(Cl)cc(Cl)c1Cl,Active
6,O=C1C(NS(=O)(=O)c2ccccc2)=C/C(=N\S(=O)(=O)c2ccc(F)cc2)c2ccccc21,Active
7,Oc1c(Cl)cc(Cl)cc1Sc1cc(Cl)cc(Cl)c1O,Active
8,O=C1Nc2ccc(I)cc2/C1=C/c1cc(Br)c(O)c(Br)c1,Active
9,CC1=NN(c2cccc(C(=O)O)c2)C(=O)/C1=C/c1ccc(-c2cccc(Cl)c2C)o1,Active
10,N#Cc1ccc(CSc2nc(-c3cccs3)c3c(c2C(=O)O)CCCC3)cc1,Active
11,N#Cc1c(-c2ccc(Cl)cc2)nc(SCc2ccccc2)[nH]c1=S,Active
12,Cc1cccc(OCCOc2ccc(Br)cc2/C=C2\SC(=S)NC2=O)c1,Active
13,CCOc1cccc(NC(=O)C2CC(=O)N(/N=C(\C)c3ccc(Br)s3)C(=N)S2)c1 (stereo not drawn),Active
14,c1ccc(-c2cnc3nonc3n2)cc1,Active
15,COC(=O)CSC1=C(C#N)C(=O)NC(c2ccccc2O)S1 (stereo not drawn),Active
16,COc1cc(/C=C2/SC(=S)NC2=O)ccc1OC(=O)c1cccc(C)c1,Active
17,Cc1c(N=c2c(=O)c3ccccc3c2=O)c(=O)n(-c2ccccc2)n1C,Active

# Molecular target: Galactokinase (Homo sapiens) (UniProt P51570)
# Experiment: Inhibition of His6-tagged recombinant human GALK expressed in Escherichia coli HMS174 (DE3) by pyruvate kinase/lactate dehydrogenase-coupled assay
row,SMILES,inhibition
1,CC(C)(C)C(=O)Nc1ccc2c(c1)C(=O)C(=O)c1ccccc1-2,Active
2,CC1(c2ccccc2)CC(C)(C)N2C(=O)/C(=C3/SC(=O)NC3=O)c3cccc1c32 (stereo not drawn),Active
3,COC1=C(N)C(=O)c2nc(-c3nc(C(=O)O)c(C)c(-c4ccc(OC)c(OC)c4O)c3N)ccc2C1=O,Active
4,Oc1c(Cl)cc(Cl)c(Cl)c1Cc1c(O)c(Cl)cc(Cl)c1Cl,Active

# Test system: Saccharomyces cerevisiae
# Experiment: Inhibition of Saccharomyces cerevisiae hexokinase
row,SMILES,inhibition
1,O=C(NC1(O)C(=O)c2ccccc2C1=O)c1cnn(-c2ccccc2)c1C(F)(F)F,Active
2,CC(C)OC1(O)C(=O)c2ccccc2C(=O)C1(O)OC(C)C (stereo not drawn),Active
3,CC1=NOC(=O)/C1=C\c1ccc(-c2ccccc2)o1,Active
4,O=C1OC(c2ccccc2)OC(=O)C1=C/C=C/c1ccccc1 (stereo not drawn),Active
5,CCSC1=C(C#N)C(=O)NC(/C=C/c2ccccc2)S1 (stereo not drawn),Active
6,Cn1c(=S)[nH]c2sc3c(c2c1=O)CCC(C(C)(C)C)C3 (stereo not drawn),Active
7,O=C1NC(=S)N(c2cccc3ccccc23)C(=O)/C1=C/c1c[nH]c2ccccc12,Active
8,O=C1NC(=O)N(c2ccccc2)C(=O)/C1=C/c1c2ccccc2cc2ccccc12,Active
9,O=C1O[C@H](c2ccccc2)[C@H](c2ccccc2)N2[C@H]1[C@@H](C(=O)O)[C@]1(C(=O)Nc3ccc(C#CC4(O)CCCCCC4)cc31)[C@H]2c1ccc(OCCO)cc1,Active
10,O=C1C=C2N(c3ccccc3)CCOC2(O)c2ccccc21 (stereo not drawn),Active
11,CC1(C)CCC2=C(O1)c1ccccc1C(=O)C2=O,Active
12,N#CC1=C(SCc2ccccc2)SC(c2ccccc2O)NC1=O (stereo not drawn),Active
13,CC(C)(C)c1cc(/C=C2/SC(=S)NC2=O)cc(C(C)(C)C)c1O,Active
14,CC(C)(C)C(=O)Nc1ccc2c(c1)C(=O)C(=O)c1ccccc1-2,Active
15,CC1(c2ccccc2)CC(C)(C)N2C(=O)/C(=C3/SC(=O)NC3=O)c3cccc1c32 (stereo not drawn),Active
16,N#CC1=C(SCc2ccccc2)SC(c2ccc(C(=O)O)cc2)NC1=O (stereo not drawn),Active
17,Cc1c(O)c(C(=O)CC(C)C)c2oc3c(C(=O)CC(C)C)c(O)c(C)c(O)c3c2c1O,Active

row,SMILES,inhibition
1,COC1=C(N)C(=O)c2nc(-c3nc(C(=O)O)c(C)c(-c4ccc(OC)c(OC)c4O)c3N)ccc2C1=O,Active
2,O=C1OC2(c3ccccc31)c1cc(I)c(O)c(I)c1Oc1c2cc(I)c(O)c1I,Active
3,O=C1OC2(CCCC2)OC(=O)C1=Cc1ccc(OCc2ccccc2)cc1,Active
4,Cc1ccc(CSc2nc(C(=O)O)ccc2C#N)cc1,Active
5,Oc1c(Cl)cc(Cl)c(Cl)c1Cc1c(O)c(Cl)cc(Cl)c1Cl,Active
6,O=C1C(NS(=O)(=O)c2ccccc2)=C/C(=N\S(=O)(=O)c2ccc(F)cc2)c2ccccc21,Active
7,Oc1c(Cl)cc(Cl)cc1Sc1cc(Cl)cc(Cl)c1O,Active
8,O=C1Nc2ccc(I)cc2/C1=C/c1cc(Br)c(O)c(Br)c1,Active
9,CC1=NN(c2cccc(C(=O)O)c2)C(=O)/C1=C/c1ccc(-c2cccc(Cl)c2C)o1,Active
10,N#Cc1ccc(CSc2nc(-c3cccs3)c3c(c2C(=O)O)CCCC3)cc1,Active
11,N#Cc1c(-c2ccc(Cl)cc2)nc(SCc2ccccc2)[nH]c1=S,Active
12,Cc1cccc(OCCOc2ccc(Br)cc2/C=C2\SC(=S)NC2=O)c1,Active
13,CCOc1cccc(NC(=O)C2CC(=O)N(/N=C(\C)c3ccc(Br)s3)C(=N)S2)c1 (stereo not drawn),Active
14,c1ccc(-c2cnc3nonc3n2)cc1,Active
15,COC(=O)CSC1=C(C#N)C(=O)NC(c2ccccc2O)S1 (stereo not drawn),Active
16,COc1cc(/C=C2/SC(=S)NC2=O)ccc1OC(=O)c1cccc(C)c1,Active
17,Cc1c(N=c2c(=O)c3ccccc3c2=O)c(=O)n(-c2ccccc2)n1C,Active

# Molecular target: Galactokinase (Homo sapiens) (UniProt P51570)
# Experiment: Inhibition of His6-tagged recombinant human GALK expressed in Escherichia coli HMS174 (DE3) at 5 to 15 uM incubated for 60 mins using galactose and ATP by Kinase-Glo reagent based assay
row,SMILES,inhibition
1,Nc1ncnc2c1ncn2[C@@H]1O[C@H](COP(=O)(O)OP(=O)(O)OP(O)(O)=S)[C@@H](O)[C@H]1O,Active

# Test system: Geobacillus stearothermophilus
# Experiment: Inhibition of Bacillus stearothermophilus glucokinase
row,SMILES,inhibition
1,O=C(NC1(O)C(=O)c2ccccc2C1=O)c1cnn(-c2ccccc2)c1C(F)(F)F,Active
2,CC(C)OC1(O)C(=O)c2ccccc2C(=O)C1(O)OC(C)C (stereo not drawn),Active
3,CC1=NOC(=O)/C1=C\c1ccc(-c2ccccc2)o1,Active
4,O=C1OC(c2ccccc2)OC(=O)C1=C/C=C/c1ccccc1 (stereo not drawn),Active
5,CCSC1=C(C#N)C(=O)NC(/C=C/c2ccccc2)S1 (stereo not drawn),Active
6,Cn1c(=S)[nH]c2sc3c(c2c1=O)CCC(C(C)(C)C)C3 (stereo not drawn),Active
7,O=C1NC(=S)N(c2cccc3ccccc23)C(=O)/C1=C/c1c[nH]c2ccccc12,Active
8,O=C1NC(=O)N(c2ccccc2)C(=O)/C1=C/c1c2ccccc2cc2ccccc12,Active
9,O=C1O[C@H](c2ccccc2)[C@H](c2ccccc2)N2[C@H]1[C@@H](C(=O)O)[C@]1(C(=O)Nc3ccc(C#CC4(O)CCCCCC4)cc31)[C@H]2c1ccc(OCCO)cc1,Active
10,O=C1C=C2N(c3ccccc3)CCOC2(O)c2ccccc21 (stereo not drawn),Active
11,CC1(C)CCC2=C(O1)c1ccccc1C(=O)C2=O,Active
12,N#CC1=C(SCc2ccccc2)SC(c2ccccc2O)NC1=O (stereo not drawn),Active
13,CC(C)(C)c1cc(/C=C2/SC(=S)NC2=O)cc(C(C)(C)C)c1O,Active
14,CC(C)(C)C(=O)Nc1ccc2c(c1)C(=O)C(=O)c1ccccc1-2,Active
15,CC1(c2ccccc2)CC(C)(C)N2C(=O)/C(=C3/SC(=O)NC3=O)c3cccc1c32 (stereo not drawn),Active
16,N#CC1=C(SCc2ccccc2)SC(c2ccc(C(=O)O)cc2)NC1=O (stereo not drawn),Active
17,Cc1c(O)c(C(=O)CC(C)C)c2oc3c(C(=O)CC(C)C)c(O)c(C)c(O)c3c2c1O,Active

row,SMILES,inhibition
1,COC1=C(N)C(=O)c2nc(-c3nc(C(=O)O)c(C)c(-c4ccc(OC)c(OC)c4O)c3N)ccc2C1=O,Active
2,O=C1OC2(c3ccccc31)c1cc(I)c(O)c(I)c1Oc1c2cc(I)c(O)c1I,Active
3,O=C1OC2(CCCC2)OC(=O)C1=Cc1ccc(OCc2ccccc2)cc1,Active
4,Cc1ccc(CSc2nc(C(=O)O)ccc2C#N)cc1,Active
5,Oc1c(Cl)cc(Cl)c(Cl)c1Cc1c(O)c(Cl)cc(Cl)c1Cl,Active
6,O=C1C(NS(=O)(=O)c2ccccc2)=C/C(=N\S(=O)(=O)c2ccc(F)cc2)c2ccccc21,Active
7,Oc1c(Cl)cc(Cl)cc1Sc1cc(Cl)cc(Cl)c1O,Active
8,O=C1Nc2ccc(I)cc2/C1=C/c1cc(Br)c(O)c(Br)c1,Active
9,CC1=NN(c2cccc(C(=O)O)c2)C(=O)/C1=C/c1ccc(-c2cccc(Cl)c2C)o1,Active
10,N#Cc1ccc(CSc2nc(-c3cccs3)c3c(c2C(=O)O)CCCC3)cc1,Active
11,N#Cc1c(-c2ccc(Cl)cc2)nc(SCc2ccccc2)[nH]c1=S,Active
12,Cc1cccc(OCCOc2ccc(Br)cc2/C=C2\SC(=S)NC2=O)c1,Active
13,CCOc1cccc(NC(=O)C2CC(=O)N(/N=C(\C)c3ccc(Br)s3)C(=N)S2)c1 (stereo not drawn),Active
14,c1ccc(-c2cnc3nonc3n2)cc1,Active
15,COC(=O)CSC1=C(C#N)C(=O)NC(c2ccccc2O)S1 (stereo not drawn),Active
16,COc1cc(/C=C2/SC(=S)NC2=O)ccc1OC(=O)c1cccc(C)c1,Active
17,Cc1c(N=c2c(=O)c3ccccc3c2=O)c(=O)n(-c2ccccc2)n1C,Active
